From patent US7462600B2, “Macrolides” (Pfizer Inc, priority 2004, dated 2008)
Values after ≈ are worked out from the molar mass of the structure shown. Like-named read-outs stand apart in the source and are kept apart here.

Tests used:
Format in all cases: cell-based
[1] = test system: Streptococcus pyogenes 1079; assay: MIC, microtiter broth dilution (NCCLS M100-S14), S. pyogenes 1079 (ermB)
How it was run: (§1)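 Steps: dissolve compound in DMSO to 40 mg/ml stock; dilute in broth across microtiter trays; inoculate strains; record MIC per NCCLS M100-S14.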

[2] = test system: Streptococcus pneumoniae 1016; assay: MIC, microtiter broth dilution (NCCLS M100-S14), S. pneumoniae 1016 (susceptible)
How it was run: as §1

[3] = test system: Streptococcus pneumoniae 1095; settings: microtiter broth dilution
How it was run: as §1

[4] = test system: Streptococcus pneumoniae 1175; settings: microtiter broth dilution
How it was run: as §1

[5] = test system: Haemophilus influenzae 1218; assay: MIC, microtiter broth dilution (NCCLS M100-S14), H. influenzae 1218 (susceptible)
How it was run: as §1

[6] = S. pneumoniae 1016 (susceptible)
[7] = H. influenzae 1218 (susceptible)

Row | Compound | MIC S. pyogenes 1079 ([1]; S. pyogenes 1079 (ermB)) [µg/mL] | MIC S. pneumo. 1016 [2, 6] [µg/mL] | MIC S. pneumo. 1095 ([3]; S. pneumoniae 1095 (ermB)) [µg/mL] | MIC S. pneumo. 1175 ([4]; S. pneumoniae 1175 (mefA)) [µg/mL] | MIC H. influenzae 1218 [5, 7] [µg/mL] | MIC S. pyogenes 1079 ([1]; Streptococcus pyogenes 1079) [µg/mL] | MIC S. pneumo. 1016 ([2]; Streptococcus pneumoniae 1016) [µg/mL] | MIC S. pneumo. 1095 ([3]; Streptococcus pneumoniae 1095) [µg/mL] | MIC S. pneumo. 1175 ([4]; Streptococcus pneumoniae 1175) [µg/mL] | MIC H. influenzae 1218 ([5]; Haemophilus influenzae 1218) [µg/mL]
1 | CCC1OC(=O)C(C)C(=O)C(C)C(OC2OC(C)CC(N(C)C)C2O)C(C)(OC)CC(C)C(=O)C(C)C2N(C3CCN(Cc4cccc5cnccc45)C3)C(=O)OC12C [Example 9.07, 3-descladinosyl-11,12-dideoxy-6-O-methyl-3-oxo-12,11-(oxycarbonyl-(1-((isoquinolin-5-yl)-methyl)-(R)-pyrrolidin-3-yl)-imino)erythromycin A] | 2 (≈ 2.43 µM) | <0.06 | <0.06 | 0.12 (≈ 0.146 µM) | 1 (≈ 1.22 µM) | – | – | – | – | –
2 | CCC1OC(=O)C(C)C(=O)C(C)C(OC2OC(C)CC(N(C)C)C2O)C(C)(OC)CC(C)C(=O)C(C)C2N(CC3CCCN3C(=O)c3cccc4cccnc34)C(=O)OC12C.O=CO (stereo not drawn) [10.11] | >64.00 | <0.06 | 0.5 | 4 | 16 | – | – | – | – | –
3 | CCC1OC(=O)C(C)C(=O)C(C)C(OC2OC(C)CC(N(C)C)C2O)C(C)(OC)CC(C)C(=O)C(C)C2N(C3CN(Cc4c(OC)cnc5ccccc45)C3)C(=O)OC12C (stereo not drawn) [Example 1.71, 3-descladinosyl-11,12-dideoxy-6-O-methyl-3-oxo-12,11-(oxycarbonyl-(1-(3-methoxyquinoline-4-methyl)-azetidin-3-yl)-imino)-erythromycin A] | – | – | – | – | – | <0.063 | <0.063 | <0.063 | <0.063 | 1 (≈ 1.19 µM)
4 | CCC1OC(=O)C(C)C(=O)C(C)C(OC2OC(C)CC(N(C)C)C2O)C(C)(OC)CC(C)C(=O)C(C)C2N(C3CN(S(=O)(=O)c4cccc(Cl)c4)C3)C(=O)OC12C (stereo not drawn) [Example 3.107, 3-descladinosyl-11,12-dideoxy-6-O-methyl-3-oxo-12,11-(oxycarbonyl-(1-(3-chlorobenzene-1-sulfonyl)-azetidin-3-yl)-imino)-erythromycin A] | – | – | – | – | – | 1 (≈ 1.19 µM) | <0.063 | <0.063 | <0.063 | 025 (≈ 29.7 µM)
5 | CCC1OC(=O)C(C)C(=O)C(C)C(OC2OC(C)CC(N(C)C)C2O)C(C)(OC)CC(C)C(=O)C(C)C2N(C3CN(C(=O)c4cccc5[nH]c(C)nc45)C3)C(=O)OC12C (stereo not drawn) [Example 2.02] | – | – | – | – | – | >64.00 | <0.06 | >64.00 | 2 (≈ 2.42 µM) | 2 (≈ 2.42 µM)
6 | CCC1OC(=O)C(C)C(=O)C(C)C(OC2OC(C)CC(N(C)C)C2O)C(C)(OC)CC(C)C(=O)C(C)C2N(C3CN(Cc4cccn5nccc45)C3)C(=O)OC12C (stereo not drawn) [Example 1.83, 3-descladinosyl-11,12-dideoxy-6-O-methyl-3-oxo-12,11-(oxycarbonyl-(1-(H-pyrazolo[1,5-a]pyridine-4-methyl)-azetidin-3-yl)-imino)-erythromycin A] | – | – | – | – | – | 4 (≈ 5.01 µM) | <0.063 | <0.063 | <0.063 | 1 (≈ 1.25 µM)
7 | 3-descladinosyl-11,12-dideoxy-6-O-methyl-3-oxo-12,11-(oxycarbonyl-(1-(quinoline-6-sulfonyl)-azetidin-3-yl)-imino)-erythromycin A [Example 3.89] | – | – | – | – | – | 8 | <0.06 | <0.06 | <0.06 | 1
8 | CCC1OC(=O)C(C)C(=O)C(C)C(OC2OC(C)CC(N(C)C)C2O)C(C)(OC)CC(C)C(=O)C(C)C2N(CC3CCCN3C(=O)c3nc4cccnc4[nH]3)C(=O)OC12C (stereo not drawn) [10.25] | >64.00 | <0.06 | <0.06 | 0.5 (≈ 0.595 µM) | 4 (≈ 4.76 µM) | – | – | – | – | –
9 | CCC1OC(=O)C(C)C(=O)C(C)C(OC2OC(C)CC(N(C)C)C2O)C(C)(OC)CC(C)C(=O)C(C)C2N(CC3CN(Cc4cnc5ncccn45)C3)C(=O)OC12C (stereo not drawn) [4.26] | – | – | – | – | – | >64.00 | <0.06 | 2 (≈ 2.46 µM) | 2 (≈ 2.46 µM) | 0.25 (≈ 0.308 µM)
10 | CCC1OC(=O)C(C)C(=O)C(C)C(OC2OC(C)CC(N(C)C)C2O)C(C)(OC)CC(C)C(=O)C(C)C2N(C3CN(S(=O)(=O)c4ccc(Oc5cccnc5)cc4)C3)C(=O)OC12C (stereo not drawn) [Example 3.27, 4-(pyridin-3-yloxy) benzenesulfonyl] | – | – | – | – | – | 32 (≈ 35.5 µM) | <0.06 | <0.06 | <0.06 | 1 (≈ 1.11 µM)
11 | CCC1OC(=O)C(C)C(=O)C(C)C(OC2OC(C)CC(N(C)C)C2O)C(C)(OC)CC(C)C(=O)C(C)C2N(C3CN(Cc4cccc(-c5cnco5)c4)C3)C(=O)OC12C (stereo not drawn) [Example 1.47, 3-(oxazol-5-yl)benzyl] | – | – | – | – | – | 64 (≈ 77.6 µM) | <0.06 | <0.06 | <0.06 | 0.25 (≈ 0.303 µM)
12 | CCC1OC(=O)C(C)C(=O)C(C)C(OC2OC(C)CC(N(C)C)C2O)C(C)(OC)CC(C)C(=O)C(C)C2N(CC3CCCN3Cc3ccno3)C(=O)OC12C (stereo not drawn) [12.04] | >64.00 | <0.06 | 4 (≈ 5.15 µM) | 1 (≈ 1.29 µM) | 2 (≈ 2.57 µM) | – | – | – | – | –
13 | CCC1OC(=O)C(C)C(=O)C(C)C(OC2OC(C)CC(N(C)C)C2O)C(C)(OC)CC(C)C(=O)C(C)C2N(C3CN(S(=O)(=O)c4ccc(-c5n[nH]c(=O)[nH]c5=O)cc4)C3)C(=O)OC12C (stereo not drawn) [Example 3.20, 3-descladinosyl-11,12-dideoxy-6-O-methyl-3-oxo-12,11-(oxycarbonyl-(1-(4-(2,3,4,5-tetrahydro-3,5-dioxo-1,2,4-triazin-6-yl)benzenesulfonyl)-azetidin-3-yl)-imino)-erythromycin A] | – | – | – | – | – | 8 (≈ 8.7 µM) | <0.06 | <0.06 | 2 (≈ 2.18 µM) | 0.5 (≈ 0.544 µM)
14 | CC[C@H]1OC(=O)[C@H](C)[C@@H](OC(=O)N2CCCC2c2cccc(F)c2)[C@H](C)[C@@H](O[C@@H]2O[C@H](C)C[C@H](N(C)C)[C@H]2O)[C@](C)(OC)C[C@@H](C)C(=O)[C@H](C)[C@H]2N(CC3CN(Cc4c[nH]c5ncccc45)C3)C(=O)O[C@]12C (stereo partly drawn) [Example 5.06, 3-descladinosyl-11,12-dideoxy-4-O-methyl-12,11-(oxycarbonyl-(1-((1H-pyrrolo[2,3-b]pyridin-3-yl)-methyl)-(azetidin-3-yl)-methyl)-imino)-3-((2-(3-fluorophenyl)-pyrrolidine)-1-carbonyl)-erythromycin A] | – | – | – | – | – | 0.25 (≈ 0.249 µM) | <0.06 | <0.06 | <0.06 | 2 (≈ 1.99 µM)
15 | CCC1OC(=O)C(C)C(=O)C(C)C(OC2OC(C)CC(N(C)C)C2O)C(C)(OC)CC(C)C(=O)C(C)C2N(CC3CCCN3C(=O)c3nccc4ccccc34)C(=O)OC12C.O=CO (stereo not drawn) [10.17] | >64.00 | <0.06 | <0.06 | 0.12 | 0.5 | – | – | – | – | –
